Here are results for 7 compounds from patent US9221798B2, “4-substituted-(3-substituted-1H-pyrazole-5-amino)-pyrimidine derivatives having activity of inhibiting protein kinase and use thereof” (Zhejian Hisun Pharmaceutical Co., Ltd., priority 2011, dated 2015).

For one experiment, the target named is T1, Aurora A kinase (Homo sapiens, UniProt O14965).
T1 sequence (O14965 1-403): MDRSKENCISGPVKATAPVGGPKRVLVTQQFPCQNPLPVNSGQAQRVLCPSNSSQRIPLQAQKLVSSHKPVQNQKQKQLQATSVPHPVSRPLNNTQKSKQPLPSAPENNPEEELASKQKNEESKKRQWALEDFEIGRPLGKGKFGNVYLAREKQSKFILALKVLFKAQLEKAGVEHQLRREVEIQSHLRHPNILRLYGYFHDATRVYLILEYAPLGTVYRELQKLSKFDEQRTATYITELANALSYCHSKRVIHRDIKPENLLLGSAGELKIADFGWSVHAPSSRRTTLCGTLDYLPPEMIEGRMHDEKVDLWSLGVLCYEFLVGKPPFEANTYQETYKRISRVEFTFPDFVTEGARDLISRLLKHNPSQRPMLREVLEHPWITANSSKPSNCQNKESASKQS
The experiment is described as follows: Assay for the inhibiting activity of kinase (Glo Plus / ADP Glo / Caliper), Aurora A. The experiment is classed as biochemical. Conditions: kinase inhibition, incubated at 30° C. for 1 hour. The protocol: (§1) Experimental Reagents: a buffer solution of 25 mM HEPES, 10 mM MgCl2, 0.01% Triton X-100, 100 μg/mL BSA, 2.5 mM DTT, pH=7.4; ATP was available from U.S. Sigma (cat. A7699); Glo Plus Kinase Reagent was available from U.S. Promega (cat. V3773); ADP Glo Reagent was available from U.S. Promega (cat. V9102).
(§2) Procedures of the detection experiment for Glo Plus and ADP Glo kinases: the kinase(s), substrate, ATP and the compound(s) to be tested were mixed on a 384-well culture plate, with a total volume of 10 μL of the mixture, […], and then the culture plate was incubated at 30° C. for 1 hour. Test for Glo Plus kinase activity: add 10 μL of Glo Plus kinase per well to the mixture and then incubate at 27° C. for 20 minutes. Test for ADP Glo kinase activity: add 10 μL of ADP Glo per well to the culture plate, and then incubate at 27° C. for 40 minutes. Then a kinase detection reagent (10 μL per well) was added to the culture plate which was incubated at 27° C. for 30 minutes. Read the values from the plate reader to determine inhibition data.
(§3) Biologic testing procedures of Caliper kinase: the kinase, substrate, ATP and the compound to be tested were mixed in a 96-well culture plate, with a total volume of 50 μL of the mixture, and then the culture plate was incubated at 30° C. for 1 hour. Add 20 μL of 35 mM EDTA to the culture plate. A solution of 26 μL of the reaction mixture was transferred to a 384-well culture plate, and read the values on a plate reader to determine inhibition data.

Another experiment deals with K562. Nature of the experiment: Test for activity of inhibiting tumor cells (CellTiter-Glo cell viability), K562. The experiment is classed as cell-based. Conditions: Homo sapiens, half growth inhibition concentration, 72 hours incubation. From the text: (§4) Reagents and consumables: 1. Tumor cells were available from HD Biosciences (Shanghai) Co., Ltd. and detected mycoplasma-free; 2. RPMI 1640 Culture Medium, available from U.S. Invitrogen, Code No.: 31800-022; 3. F12K Culture Medium, available from U.S. Invitrogen, Code No.: 21127-022; 4. DMEM Culture Medium, available from U.S. Invitrogen, Code No.: 12100-046; 5. Fetal bovine serum, available from U.S. Hyclone, Code No.: CH30160.03; 6. Penicillin-Streptomycin liquid, available from U.S. Invitrogen, Code No.: 15140-122; 7. Gemcitabine, available from U.K. Tocris, Code No.: 3259; 8. DMSO, available from U.S. Sigma, Code No.: D4540; 9. 96-well cell culture plate, available from U.S. Corning, Code No.: 3610; 10. CellTiter-Glo Luminescent Cell Viability Assay, available from U.S. Promega, Code No.: G7571; 11. Plate Reader, available from U.S. Perkin Elmer, EnVision Multilabel Plate Reader.
(§5) The cell culture mediums: 1. RPMI 1640 whole cell culture medium: a RPMI 1640 culture medium containing 10% fetal bovine serum and 100 U penicillin and 100 μg/mL streptomycin. 2. F12K whole cell culture medium: a F12K culture medium containing 10% fetal bovine serum and 100 U penicillin and 100 μg/mL streptomycin. 3. DMEM whole cell culture medium: a DMEM culture medium containing 10% fetal bovine serum and 100 U penicillin and 100 μg/mL streptomycin.
Preparation of the compounds: 1. A test compound was formulated into a mother liquor in a concentration of 30 mM, and the mother liquor was divided into aliquots and stored in a refrigerator at −80° C. 2. The mother liquors of the test compounds in a concentration of 30 mM were diluted with DMSO to a series of solutions in gradient concentrations, wherein these gradient concentrations included 25 mM, 5 mM, 1 mM, 200 μM, 40 μM, 8 μM, 1.6 μM, 0.32 μM. Then the formulated solutions in gradient concentrations were diluted five times with the whole cell culture mediums, and then the gradient concentrations of the test compounds included 5 mM, 1 mM, 200 μM, 40 μM, 8 μM, 1.6 μM, 0.32 μM, 0.064 μM dissolved in 20% DMSO. 3. Only before the experiments began, the prepared solutions of the test compounds in series of gradient concentrations were diluted one hundred times with the whole cell culture mediums under sterile conditions, wherein these gradient concentrations of the test compounds included 50 μM, 10 μM, 2 μM, 0.4 μM, 0.08 μM, 16 nM, 3.2 nM, 0.64 nM; which were 2× the compound solutions and they could be used to treat the cells. 4. […]
(§6) Procedures: 1. […] The cell plate was placed into the plate reader for analysis. Set to read chemiluminescence and record the data.
(§7) Data Process: The data read in each well were required to be converted into cell viability. The cell viability could be calculated by using formulae. […]

In the next experiment the target is Raf-1 kinase (Homo sapiens, UniProt P04049). Nature of the experiment: Assay for the inhibiting activity of kinase (Glo Plus / ADP Glo / Caliper), Raf-1. In kind it is biochemical. Conditions: kinase inhibition, incubated at 30° C. for 1 hour. The protocol: as §1, §2, §3
Sequence of Raf-1 kinase (P04049 whole entry): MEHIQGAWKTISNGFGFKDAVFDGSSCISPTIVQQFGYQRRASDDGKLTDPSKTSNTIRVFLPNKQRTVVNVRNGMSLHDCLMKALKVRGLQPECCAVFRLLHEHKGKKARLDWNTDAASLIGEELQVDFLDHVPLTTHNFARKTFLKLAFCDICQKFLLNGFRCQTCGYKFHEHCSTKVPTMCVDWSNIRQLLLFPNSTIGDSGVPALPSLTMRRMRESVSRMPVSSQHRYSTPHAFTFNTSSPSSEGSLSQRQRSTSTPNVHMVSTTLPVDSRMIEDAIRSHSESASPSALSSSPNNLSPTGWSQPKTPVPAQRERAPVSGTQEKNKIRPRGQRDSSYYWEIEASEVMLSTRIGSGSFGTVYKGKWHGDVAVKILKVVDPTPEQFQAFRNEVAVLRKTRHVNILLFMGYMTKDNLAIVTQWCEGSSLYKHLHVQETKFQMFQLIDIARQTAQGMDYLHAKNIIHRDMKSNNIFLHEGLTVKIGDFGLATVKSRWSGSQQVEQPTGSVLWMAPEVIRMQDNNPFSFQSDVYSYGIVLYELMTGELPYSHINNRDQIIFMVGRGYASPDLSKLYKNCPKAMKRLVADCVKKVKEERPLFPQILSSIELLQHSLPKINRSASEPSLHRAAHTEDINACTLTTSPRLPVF
The subject of another experiment is HepG2. The experiment is described as follows: Test for activity of inhibiting tumor cells (CellTiter-Glo cell viability), HepG2. The experiment is classed as cell-based. As to conditions: Homo sapiens, half growth inhibition concentration, 72 hours incubation.
Text: as §4, §5
Preparation of the compounds: 1. A test compound was formulated into a mother liquor in a concentration of 30 mM, and the mother liquor was divided into aliquots and stored in a refrigerator at −80° C. 2. The mother liquors of the test compounds in a concentration of 30 mM were diluted with DMSO to a series of solutions in gradient concentrations, wherein these gradient concentrations included 25 mM, 5 mM, 1 mM, 200 μM, 40 μM, 8 μM, 1.6 μM, 0.32 μM. […]
as §6, §7

The subject of another experiment is A549. Nature of the experiment: Test for activity of inhibiting tumor cells (CellTiter-Glo cell viability), A549. In kind it is cell-based. Conditions: Homo sapiens, half growth inhibition concentration, 72 hours incubation.
Text: as §4
The cell culture mediums: 1. RPMI 1640 whole cell culture medium: a RPMI 1640 culture medium containing 10% fetal bovine serum and 100 U penicillin and 100 μg/mL streptomycin. 2. […]
as §6, §7

In the case of `Cc1cc(Nc2nc(Nc3cc(NC(=O)Nc4ccc(Cl)c(C(F)(F)F)c4)ccc3C)ncc2F)n[nH]1` [Compound 2, 1-(4-chloro-3-trifluoromethyl-phenyl)-3-{3-[5-fluoro-4-(5-methyl-1H-pyrazol-3-yl-amino)-pyrimidin-2-yl-amino]-4-methyl-phenyl}-urea], the IC50 at Aurora A kinase was 0.78 µM; at Raf-1 kinase, 0.38 µM. Besides, the results for the EC50 in the experiment with K562 and in the experiment on HepG2 were 4 µM and 3.82 µM, respectively.
Consider `Cc1cc(Nc2nc(Nc3cc(NC(=O)Nc4ccc(Cl)c(C(F)(F)F)c4)ccc3C)ncc2C(F)(F)F)n[nH]1` [Compound 3, 1-(4-chloro-3-trifluoromethyl-phenyl)-3-{4-methyl-3-[4-(5-methyl-1H-pyrazol-3-yl-amino)-5-trifluoromethyl-pyrimidin-2-yl-amino]-phenyl}-urea], for which, at Raf-1 kinase, the IC50 worked out at 1.53 µM.
In the case of `Cc1cc(Nc2ccnc(Nc3cc(NC(=O)Nc4ccc(Cl)c(C(F)(F)F)c4)ccc3C)n2)n[nH]1` [Compound 4, 1-(4-chloro-3-trifluoromethyl-phenyl)-3-{4-methyl-3-[4-(5-methyl-1H-pyrazol-3-yl-amino)-pyrimidin-2-yl-amino]-phenyl}-urea], the IC50 on Aurora A kinase worked out at 2.68 µM.
Take `Cc1cc(Nc2nc(Nc3cc(NC(=O)Nc4ccc(Cl)c(C(F)(F)F)c4)ccc3C)ncc2C)n[nH]1` [Compound 6, 1-(4-chloro-3-trifluoromethyl-phenyl)-3-{4-methyl-3-[5-methyl-4-(5-methyl-1H-pyrazol-3-yl-amino)-pyrimidin-2-yl-amino]-phenyl}-urea]: the IC50 is 0.14 µM at Aurora A kinase and 0.25 µM at Raf-1 kinase. In addition, the EC50 with K562 was 4.87 µM; with HepG2 it was 6.98 µM.
Turning to `Cc1cc(Nc2nc(Nc3cc(NC(=O)Nc4ccc(Cl)c(C(F)(F)F)c4)ccc3C)ncc2N)n[nH]1` [Compound 8, 1-(4-chloro-3-trifluoromethyl-phenyl)-3-{4-methyl-3-[5-methyl-4-(5-methyl-1H-pyrazol-3-yl-amino)-5-amino-pyrimidin-2-yl-amino]-phenyl}-urea], the concentration for half-maximal inhibition (IC50) at Aurora A kinase amounted to 2.1 µM; on Raf-1 kinase, 0.41 µM. Also, in the experiment with K562, the midpoint of the response, the EC50, lay at 11.9 µM.
Consider `COc1cnc(Nc2cc(NC(=O)Nc3ccc(Cl)c(C(F)(F)F)c3)ccc2C)nc1Nc1cc(C)[nH]n1` [Compound 9, 1-(4-chloro-3-trifluoromethyl-phenyl)-3-{3-[5-methoxy-4-(5-methyl-1H-pyrazol-3-yl-amino)-pyrimidin-2-yl-amino]-4-methyl-phenyl}-urea], for which the IC50 is 0.34 µM at Aurora A kinase and 0.24 µM at Raf-1 kinase. The values for the EC50 with K562, in the experiment with A549 and in the experiment on HepG2 were 4.8 µM, 13.3 µM and 17.7 µM, respectively.
Take `Cc1cc(Nc2nc(Nc3cc(NC(=O)Nc4ccc(Cl)c(C(F)(F)F)c4)ccc3C)ncc2O)n[nH]1` [Compound 11, 1-(4-chloro-3-trifluoromethyl-phenyl)-3-{3-[5-hydroxy-4-(5-methyl-1H-pyrazol-3-yl-amino)-pyrimidin-2-yl-amino]-4-methyl-phenyl}-urea]: the IC50 at Raf-1 kinase worked out at 2.14 µM.
